Data taken from patent US10406097B2, “Extract of Arthrobacter agilis for use in particular in cosmetics” (priority 2013, dated 2019).

Tested on: Normal human keratinocytes (NHK)
Assay: Carbonylation test (OxyELISA) after UV/visible irradiation
Format: cell-based
Conditions: SBE 200 nM; Tocopherol acetate 20 μM; 2 hours contact; 120 kJ/m^2; P-value <0.01
Method: By following the same UV/visible irradiation protocol as the one used above for the comet assay, the rate of carbonylation of keratinocytes in the presence of SBE and tocopherol acetate was measured.
• Normal human keratinocytes (NHK) (T6)-10^6 cells/condition • Conditions: • 1% THF solvent control • SBE 200 nM • Tocopherol acetate 20 μM • Each condition is carried out in triplicate. • Contact with KHNs in different experimental conditions for 2 hours. • UVB/UVA/Visible irradiation at 120 kJ/m^2 of the cells placed in PBS by a Suntest CPS+ solar simulator (Atlas Material Testing Technology) at 4° C. Negative controls are maintained at 4° C. for the same duration as the irradiation. • Trypsination of the cells post irradiation. Rinsing of the iced PBS. Elimination of the PBS and immediate freezing of the cell pellets at −80° C. 2—Measurement of the Carbonylation • The proteins are extracted after lysis of the cells and their concentration is measured using the Bradford test. • The proteins are derived by 2,4-dinitrophenylhydrazine (DNPH), which binds to the carbonyl groups. • The carbonylation rate is then measured on ELISA plates (OxyELISA™ Oxidized Protein Quantitation Kit, Millipore) at 450 nm. Results

CC(=O)Oc1c(C)c(C)c2c(c1C)CCC(C)(CCC[C@H](C)CCC[C@H](C)CCCC(C)C)O2 (stereo partly shown) [tocopherol acetate]
increase of the rate of carbonylation of keratinocyte proteins after UV/visible irradiation: decreases significantly
